{
  "source": "patent US9695155B2",
  "about": "“Herbicidal substituted pyrimidinyloxy benzene compounds” (E. I. DU PONT DE NEMOURS AND COMPANY, priority 2013, dated 2017)",
  "key": {"[1]": {"tested_on": "blackgrass", "experiment": "Test D preemergence", "format": "in vivo, Alopecurus myosuroides", "details": "Alopecurus myosuroides, pre-emergence, scale 0-100, read-out: Plant response rating, Blackgrass", "how_it_was_run": "(§1)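 Visual ratings from 0 (no effect) to 100 (complete control) relative to untreated plants were taken 7–21 days after treatment. Chemicals in a surfactant-containing solvent mixture were applied preemergence to seeds in silt loam, or postemergence to plants 2–18 cm tall (1–4 leaves) grown in a peat-based potting medium.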"}, "[2]": {"tested_on": "chickweed", "experiment": "Test D preemergence", "format": "in vivo, Stellaria media", "details": "Stellaria media, pre-emergence, scale 0-100, read-out: Plant response rating, Chickweed", "how_it_was_run": "as §1"}, "[3]": {"tested_on": "galium", "experiment": "Test D preemergence", "format": "in vivo, Galium aparine", "details": "Galium, pre-emergence, scale 0-100, read-out: Plant response rating, Galium", "how_it_was_run": "as §1"}, "[4]": {"tested_on": "speedwell", "experiment": "Test D preemergence", "format": "in vivo, Veronica persica", "details": "Veronica persica, pre-emergence", "how_it_was_run": "as §1"}, "[5]": {"tested_on": "wild mustard", "experiment": "Test D preemergence", "format": "in vivo, Sinapis arvensis", "details": "Brassica, pre-emergence, scale 0-100, read-out: Plant response rating, Mustard, Wild", "how_it_was_run": "as §1"}, "[6]": {"tested_on": "bluegrass", "experiment": "Test D postemergence", "format": "in vivo, Poa annua", "details": "Poa annua, post-emergence, Postemergence, scale 0 to 100 (0 no effect, 100 complete control), read-out: Plant response rating, Bluegrass", "how_it_was_run": "as §1"}, "[7]": {"tested_on": "Italian ryegrass", "experiment": "Test D postemergence", "format": "in vivo, Lolium multiflorum", "details": "Lolium multiflorum, post-emergence, scale 0 to 100 (0 no effect, 100 complete control), read-out: Plant response rating, Ryegrass, Italian", "how_it_was_run": "as §1"}, "[8]": {"tested_on": "windgrass", "experiment": "Test D postemergence", "format": "in vivo, Apera spica-venti", "details": "Apera spica-venti, post-emergence, scale 0 to 100 (0 no effect, 100 complete control), read-out: Plant response rating, Windgrass", "how_it_was_run": "as §1"}, "[9]": {"tested_on": "soybean", "experiment": "Test E postemergence", "format": "in vivo, Glycine max", "details": "Glycine max, post-emergence", "how_it_was_run": "(§2)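 Compound in a non-phytotoxic solvent mixture with surfactant was applied preemergence to seeds in silt loam soil, or postemergence to plants 2 to 18 cm tall grown in peat-based potting medium. Plants were kept in a greenhouse for 14 to 21 days, then rated visually against untreated controls on a 0 (no effect) to 100 (complete control) scale.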"}, "[10]": {"tested_on": "waterhemp_RES2 (ALS & HPPD resistant common waterhemp)", "experiment": "Test E postemergence", "format": "in vivo, Amaranthus rudis", "details": "Amaranthus tuberculatus, post-emergence, read-out: Plant response rating, Waterhemp_RES2", "how_it_was_run": "as §2"}, "[11]": {"tested_on": "waterhemp", "experiment": "Test E postemergence", "format": "in vivo, Amaranthus rudis", "details": "Amaranthus tuberculatus, post-emergence, read-out: Plant response rating, Waterhemp", "how_it_was_run": "as §2"}, "[12]": {"tested_on": "Brazilian crabgrass", "experiment": "Test E postemergence", "format": "in vivo, Digitaria horizontalis", "details": "Digitaria horizontalis, post-emergence, read-out: Plant response rating, Crabgrass, Brazil", "how_it_was_run": "as §2"}, "[13]": {"tested_on": "fall panicum", "experiment": "Test E postemergence", "format": "in vivo, Panicum dichotomiflorum", "details": "Panicum dichotomiflorum, post-emergence, read-out: Plant response rating, Panicum, Fall", "how_it_was_run": "as §2"}, "[14]": {"details": "Postemergence, 31 g ai/ha, scale 0 to 100"}, "[15]": {"details": "Postemergence, 62 g ai/ha, scale 0 to 100"}, "[16]": {"details": "Postemergence, 125 g ai/ha, scale 0 to 100"}, "[17]": {"details": "Postemergence, 250 g ai/ha, scale 0 to 100"}, "[18]": {"details": "postemergence, 16 g ai/ha, scale 0 to 100, 0 no effect, 100 complete control"}},
  "data": [
    {"molecule": "N#Cc1cccc(Oc2ncc(Cl)cn2)c1-n1cc(C(F)(F)F)cn1", "note": "[Compound 58, 3-[(5-chloro-2-pyrimidinyl)oxy]-2-[4-(trifluoromethyl)-1H-pyrazol-1-yl]benzonitrile]", "values": [
      {"measurement": "pest or weed control at 31 g/ha", "setting": "[1]; 31 g ai/ha", "result": 20, "unit": "%"},
      {"measurement": "pest or weed control at 62 g/ha", "setting": "[1]; 62 g ai/ha", "result": 55, "unit": "%"},
      {"measurement": "pest or weed control at 125 g/ha", "setting": "[1]; 125 g ai/ha", "result": 100, "unit": "%"},
      {"measurement": "pest or weed control at 250 g/ha", "setting": "[1]; 250 g ai/ha", "result": 100, "unit": "%"},
      {"measurement": "pest or weed control at 31 g/ha", "setting": "[2]; 31 g ai/ha", "result": 100, "unit": "%"},
      {"measurement": "pest or weed control at 62 g/ha", "setting": "[2]; 62 g ai/ha", "result": 100, "unit": "%"},
      {"measurement": "pest or weed control at 125 g/ha", "setting": "[2]; 125 g ai/ha", "result": 100, "unit": "%"},
      {"measurement": "pest or weed control at 250 g/ha", "setting": "[2]; 250 g ai/ha", "result": 100, "unit": "%"},
      {"measurement": "pest or weed control at 31 g/ha", "setting": "[3]; 31 g ai/ha", "result": 65, "unit": "%"},
      {"measurement": "pest or weed control at 62 g/ha", "setting": "[3]; 62 g ai/ha", "result": 100, "unit": "%"},
      {"measurement": "pest or weed control at 125 g/ha", "setting": "[3]; 125 g ai/ha", "result": 100, "unit": "%"},
      {"measurement": "pest or weed control at 250 g/ha", "setting": "[3]; 250 g ai/ha", "result": 100, "unit": "%"},
      {"measurement": "pest or weed control at 31 g/ha", "setting": "[4]; 31 g ai/ha, scale 0 (no effect) to 100 (complete control), read-out: Plant response rating, Speedwell", "result": 100, "unit": "%"},
      {"measurement": "pest or weed control at 62 g/ha", "setting": "[4]; 62 g ai/ha, scale 0-100, read-out: Plant response rating, Speedwell", "result": 100, "unit": "%"},
      {"measurement": "pest or weed control at 125 g/ha", "setting": "[4]; 125 g ai/ha, scale 0-100, read-out: Plant response rating, Speedwell", "result": 100, "unit": "%"},
      {"measurement": "pest or weed control at 250 g/ha", "setting": "[4]; 250 g ai/ha, scale 0-100, read-out: Plant response rating, Speedwell", "result": 100, "unit": "%"},
      {"measurement": "pest or weed control at 31 g/ha", "setting": "[5]; 31 g ai/ha", "result": 90, "unit": "%"},
      {"measurement": "pest or weed control at 62 g/ha", "setting": "[5]; 62 g ai/ha", "result": 100, "unit": "%"},
      {"measurement": "pest or weed control at 125 g/ha", "setting": "[5]; 125 g ai/ha", "result": 100, "unit": "%"},
      {"measurement": "pest or weed control at 250 g/ha", "setting": "[5]; 250 g ai/ha", "result": 100, "unit": "%"},
      {"measurement": "pest or weed control at 31 g/ha", "setting": "[6]; 31 g ai/ha", "result": 25, "unit": "%"},
      {"measurement": "pest or weed control at 62 g/ha", "setting": "[6]; 62 g ai/ha", "result": 35, "unit": "%"},
      {"measurement": "pest or weed control at 125 g/ha", "setting": "[6]; 125 g ai/ha", "result": 45, "unit": "%"},
      {"measurement": "pest or weed control at 250 g/ha", "setting": "[6]; 250 g ai/ha", "result": 55, "unit": "%"},
      {"measurement": "pest or weed control at 31 g/ha", "setting": "[7]; 31 g ai/ha", "result": 10, "unit": "%"},
      {"measurement": "pest or weed control at 62 g/ha", "setting": "[7]; 62 g ai/ha", "result": 20, "unit": "%"},
      {"measurement": "pest or weed control at 125 g/ha", "setting": "[7]; 125 g ai/ha", "result": 50, "unit": "%"},
      {"measurement": "pest or weed control at 250 g/ha", "setting": "[7]; 250 g ai/ha", "result": 65, "unit": "%"},
      {"measurement": "pest or weed control at 31 g/ha", "setting": "[8]; 31 g ai/ha", "result": 20, "unit": "%"},
      {"measurement": "pest or weed control at 62 g/ha", "setting": "[8]; 62 g ai/ha", "result": 35, "unit": "%"},
      {"measurement": "pest or weed control at 125 g/ha", "setting": "[8]; 125 g ai/ha", "result": 55, "unit": "%"},
      {"measurement": "pest or weed control at 250 g/ha", "setting": "[8]; 250 g ai/ha", "result": 90, "unit": "%"},
      {"measurement": "plant response (crop injury) rating, soybean, 0-100 scale at 31 g/ha", "setting": "[9]; [14]", "result": 95, "unit": "%"},
      {"measurement": "plant response (crop injury) rating, soybean, 0-100 scale at 62 g/ha", "setting": "[9]; [15]", "result": 95, "unit": "%"},
      {"measurement": "plant response (crop injury) rating, soybean, 0-100 scale at 125 g/ha", "setting": "[9]; [16]", "result": 95, "unit": "%"},
      {"measurement": "plant response (crop injury) rating, soybean, 0-100 scale at 250 g/ha", "setting": "[9]; [17]", "result": 100, "unit": "%"},
      {"measurement": "plant response (crop injury) rating, soybean, 0-100 scale at 16 g/ha", "setting": "[9]; [18]", "result": 75, "unit": "%"},
      {"measurement": "pest or weed control at 31 g/ha", "setting": "[10]; [14]", "result": 90, "unit": "%"},
      {"measurement": "pest or weed control at 62 g/ha", "setting": "[10]; [15]", "result": 90, "unit": "%"},
      {"measurement": "pest or weed control at 125 g/ha", "setting": "[10]; [16]", "result": 95, "unit": "%"},
      {"measurement": "pest or weed control at 250 g/ha", "setting": "[10]; [17]", "result": 100, "unit": "%"},
      {"measurement": "pest or weed control at 16 g/ha", "setting": "[10]; [18]", "result": 80, "unit": "%"},
      {"measurement": "pest or weed control at 31 g/ha", "setting": "[11]; [14]", "result": 85, "unit": "%"},
      {"measurement": "pest or weed control at 62 g/ha", "setting": "[11]; [15]", "result": 95, "unit": "%"},
      {"measurement": "pest or weed control at 125 g/ha", "setting": "[11]; [16]", "result": 100, "unit": "%"},
      {"measurement": "pest or weed control at 250 g/ha", "setting": "[11]; [17]", "result": 100, "unit": "%"},
      {"measurement": "pest or weed control at 16 g/ha", "setting": "[11]; [18]", "result": 75, "unit": "%"},
      {"measurement": "pest or weed control at 31 g/ha", "setting": "[12]; [14]", "result": 20, "unit": "%"},
      {"measurement": "pest or weed control at 62 g/ha", "setting": "[12]; [15]", "result": 40, "unit": "%"},
      {"measurement": "pest or weed control at 125 g/ha", "setting": "[12]; [16]", "result": 55, "unit": "%"},
      {"measurement": "pest or weed control at 250 g/ha", "setting": "[12]; [17]", "result": 75, "unit": "%"},
      {"measurement": "pest or weed control at 16 g/ha", "setting": "[12]; [18]", "result": 10, "unit": "%"},
      {"measurement": "pest or weed control at 31 g/ha", "setting": "[13]; [14]", "result": 30, "unit": "%"},
      {"measurement": "pest or weed control at 62 g/ha", "setting": "[13]; [15]", "result": 40, "unit": "%"},
      {"measurement": "pest or weed control at 125 g/ha", "setting": "[13]; [16]", "result": 60, "unit": "%"},
      {"measurement": "pest or weed control at 250 g/ha", "setting": "[13]; [17]", "result": 60, "unit": "%"},
      {"measurement": "pest or weed control at 16 g/ha", "setting": "[13]; [18]", "result": 20, "unit": "%"}
    ]}
  ]
}
